Experimental data published in patent US5707855A (priority 1996, dated 1998).
In brackets after ≈: the same amount, converted by molar mass.

Columns and labels:
E. cloacae = format: cell-based; settings: strain 218S, Parent of 218R1
Description: (§1) The minimum inhibitory concentrations of (MIC) of CEME, CEMA and melittin were determined for a number of different bacteria (Table 2). Briefly, cells were grown overnight at 37° C. in LB-S (Luria broth without any salt supplement) and diluted one in 10,000 in the same medium to give concentrations of about 10^4 to 10^5 CFU/ml. The broth dilutions were set up in a 96 well microtiter plate by putting 200 μl of LB-S containing the initial concentration of antibiotic or compound in column 1 and 100 μl of the same medium in columns 2-12. The compounds were diluted by taking 100 μl of broth from column 1 and mixing it with column 2, resulting in a one in two dilution. This was continued to column 10. Finally, 10 μl of bacteria were pipetted into columns 1-11, and the plates incubated overnight at 37° C. The next day the plates were scored for growth in the wells, and the MIC determined.

E. coli = format: cell-based; settings: strain UB1005, Parent of DC2
Description: as §1

P. aeruginosa = format: cell-based; settings: against many bacterial species
Description: as §1

S. typhimurium = format: cell-based; settings: C590 versus C587
Description: as §1

[1] = MICs of common antibiotics in the presence of sub-MIC levels of cationic peptides; format: cell-based; settings: peptide at 1/2 MIC levels
Description: as §1
The ability of the cationic peptides to work synergystically was examined by determining the MIC values for some commonly used antibiotics in the presence of sub-MIC levels of cationic peptides (Table 4). […] This may be due to the high membrane permeabilizing activity of CEMA (see below). However, the peptides did lower the MIC of polymyxin B, possibly due to the fact that they are all taken up by the same pathway and are therefore aiding each other's uptake. Of interest is the influence that melittin has on the MIC of polymyxin B, given the […] membrane permeabilizing activity of melittin.

E. cloacae 218R1 [2] = assay: Lysozyme lysis assay (outer membrane permeabilization); format: cell-based; settings: 50 μg/ml lysozyme; decrease in OD600
Description: (§2) Membrane permeabilization by polycationic compounds was measured in two different assays. The first assay measured membrane disruption by the ability of lysozyme to reach the periplasm and cause cell lysis. […] The uptake of lysozyme into whole cells due to membrane permeabilization by various compounds was previously described in Hancock, et al., Antimicrobial Agents and Chemo., 19:777, 1981. Overnight cultures of P. aeruginosa H309 or E. cloacae 218R1 grown in LB-S were diluted 1 in 50 in fresh medium and grown to an OD600 =0.5-0.6. The cells were harvested in a Silencer H-103N clinical centrifuge at 1800 g for 10 min, washed once with one volume of assay buffer (5 mM HEPES pH 7.2, 5 mM KCN), and resuspended in the same buffer to an OD600 of 0.5. Assays consisted of 600 μl of cells with 50 μg/ml of chicken egg white lysozyme and varying concentrations of cationic compounds. Cell lysis was measured as a decrease in the OD600 in a Perkin-Elmer dual beam spectrophotometer. Parallel experiments performed without lysozyme enabled the measurement of the lytic activity of the compounds themselves. To test whether or not permeability to lysozyme could be inhibited by divalent cations, various concentrations of MgCl2 were added to the assay after the addition of lysozyme and before the addition of the test compound.

P. AERUGINOSA H309 [3] = assay: as above; format: cell-based; settings: 50 μg/ml lysozyme; decrease in OD600
Description: as §2

E. cloacae 218R1 [4] = format: cell-based; settings: 10 μM NPN; fluorescence increase
From the text: (§3) The second assay determined membrane permeability by the ability of 1-N-phenylnaphthylamine (NPN), a small fluorescent probe, to insert itself into the membrane. Normally, very little NPN can penetrate the outer membrane, but in the presence of a membrane permeabilizer it can insert into the hydrophobic membrane resulting in an increase in fluorescence (FIGS. 7 and 8). This N-phenylnaphthylamine uptake assay was previously described by Loh, et al., Antimicrobial Agents and Chemo., 26:546, 1984. Cells were prepared exactly the same as for the lysozyme lysis assay. 1-N-phenylnaphthylamine (NPN) was dissolved in acetone at a concentration of 500 μM. NPN fluorescence was measured in a Perkin-Elmer 650-10S fluorescent spectrophotometer using excitation and emission wavelengths set to 350 nm and 420 nm respectively, with slit widths of 5 nm. The assay was standardized by adding 20 μl of NPN (final concentration of 10 μM) and 10 μl of 0.64 mg/ml of polymyxin B (final concentration of 6.4 μg/ml) into 1 ml of cells, and adjusting the resulting fluorescence to read 90% deflection (90 arbitrary units). Various compounds were tested by adding 10 μl of different concentrations to a cuvette containing 1 ml of cells and 10 μM NPN. Permeabilizing activity was designated as the total fluorescence minus the fluorescence due to NPN alone. Following the fluorescence measurement, the OD600 of the cells was taken to ensure no significant cell lysis had occurred.

P. AERUGINOSA H309 [5] = format: cell-based; settings: 10 μM NPN; fluorescence increase
From the text: as §3

P. aeruginosa H103 LPS = assay: Dansyl polymyxin (DPx) displacement from purified LPS; format: binding; settings: on a μM basis
Description: In this assay, DPx was incubated with LPS to saturate the binding sites and then, while polycationic compounds are titrated into the reaction, displacement of the DPx was monitored by the decrease in fluorescence (FIG. 9).
The method of Moore, et al., (Antimicrobial Agents and Chemo., 29:496, 1987), was used to test how much DPx was needed to saturate the binding sties on LPS. Briefly, 5 μl samples of 100 μM DPx were titrated sequentially into 1 ml of 3 μg/ml of LPS until a maximum fluorescence was reached. The fluorescence was measured in a Perkin-Elmer 650-10S fluorescence spectrophotometer with an excitation wavelength of 340 nm and an emission wavelength of 485 nm using slit widths of 5 nm. […] For the binding inhibition assays (Moore, et al., Antimicrobial Agents and Chemo., 29:496, 1987), 2.5 μM DPx was added to 3 μg/ml of H103 LPS in 5 mM HEPES pH 7.2. The test compounds were added 5 μl at a time and the decrease in fluorescence due to displacement of the DPx from the LPS was recorded.

SMILES: CC[C@H](C)[C@H](NC(=O)CNC(=O)[C@@H](NC(=O)[C@H](CCCCN)NC(=O)[C@H](CCCCN)NC(=O)[C@H](Cc1ccccc1)NC(=O)[C@H](CC(C)C)NC(=O)[C@H](CCCCN)NC(=O)[C@H](Cc1c[nH]c2ccccc12)NC(=O)[C@@H](N)CCCCN)[C@@H](C)CC)C(=O)NCC(=O)N[C@@H](C)C(=O)N[C@H](C(=O)N[C@@H](CC(C)C)C(=O)N[C@@H](CCCCN)C(=O)N[C@H](C(=O)N[C@@H](CC(C)C)C(=O)N[C@H](C(=O)N[C@H](C(=O)NCC(=O)N[C@@H](CC(C)C)C(=O)N1CCC[C@H]1C(=O)N[C@@H](C)C(=O)N[C@@H](CC(C)C)C(=O)N[C@@H](CCCCN)C(=O)N[C@@H](CC(C)C)C(=O)N[C@H](C(=O)N[C@@H](CCCCN)C(=O)O)[C@@H](C)O)[C@@H](C)O)[C@@H](C)O)C(C)C)C(C)C [CEMA]
- MIC (E. cloacae): 2.8 µg/mL (≈ 0.913 µM)
- MIC (E. coli): 2.8 µg/mL (≈ 0.913 µM)
- Antibiotic activity compared with CEME (P. aeruginosa): two-fold improved antibiotic activity
- Sensitivity of defensin sensitive strain C590 relative to parent (MIC change) (S. typhimurium): four-fold more sensitive
- Reduction of the MICs of ceftazidime, imipenem and tetracycline [1]: 2 fold
- Permeabilization of the outer membrane to lysozyme, compared with polymyxin B (E. cloacae 218R1 [2]): stronger permeabilizer for lysozyme than polymyxin B
- Permeabilization of the outer membrane to lysozyme, compared with polymyxin B (P. AERUGINOSA H309 [3]): stronger permeabilizer for lysozyme than polymyxin B
- Activity in opening up the membrane to NPN (E. cloacae 218R1 [4]): equally active
- Activity in opening up the membrane to NPN (P. AERUGINOSA H309 [5]): equally active
- Affinity for LPS compared with polymyxin B (P. aeruginosa H103 LPS): higher affinity for LPS than polymyxin B
